Target: Proto-oncogene tyrosine-protein kinase Src (Homo sapiens, UniProt P12931)
Assay: Binding affinity for p60 c-Src SH2 domain by scintillation proximity assay (SPA)

Chain of Proto-oncogene tyrosine-protein kinase Src (P12931 2-536 limits assumed): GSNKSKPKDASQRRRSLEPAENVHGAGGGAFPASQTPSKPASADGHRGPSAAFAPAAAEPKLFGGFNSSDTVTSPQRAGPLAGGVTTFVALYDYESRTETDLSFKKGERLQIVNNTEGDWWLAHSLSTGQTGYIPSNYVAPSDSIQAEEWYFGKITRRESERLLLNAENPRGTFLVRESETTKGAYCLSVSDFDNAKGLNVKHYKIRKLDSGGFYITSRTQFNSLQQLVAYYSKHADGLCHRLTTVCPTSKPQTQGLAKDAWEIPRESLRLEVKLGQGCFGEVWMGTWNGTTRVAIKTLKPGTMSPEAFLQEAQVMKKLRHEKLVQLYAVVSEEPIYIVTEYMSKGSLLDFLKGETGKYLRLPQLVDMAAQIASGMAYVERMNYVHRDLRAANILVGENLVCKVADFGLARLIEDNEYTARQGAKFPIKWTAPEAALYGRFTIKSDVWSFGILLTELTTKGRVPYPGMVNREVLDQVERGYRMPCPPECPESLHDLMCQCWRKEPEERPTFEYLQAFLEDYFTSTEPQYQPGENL

| IC50 [µM] | Compound |
| --- | --- |
| 8.6 | CC(=O)N[C@@H](Cc1ccc(OP(=O)(O)O)cc1)C(=O)NC(C)c1nc(SCC2CCCCC2)c(C(N)=O)n1C (stereo partly drawn) |
| 6.9 | CCOC(=O)c1c(SCC2CCCCC2)nc(C(C)NC(=O)[C@H](Cc2ccc(OP(=O)(O)O)cc2)NC(C)=O)n1C (stereo partly drawn) |
| 5.3 | CC(=O)N[C@@H](Cc1ccc(C(F)(F)P(=O)(O)O)cc1)C(=O)NC(C)c1nc(SCC2CCCCC2)c(C(N)=O)n1C (stereo partly drawn) |
